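Five compound concentrations were applied to cells in 96-well plates for 48 hours; endpoints were derived by simple linear interpolation of the resulting dose-response curve. The concentration for 50% growth inhibition is given as GI50.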 Active and inactive are the calls of the source. Cut-off read from the data, not from the text of the source: active = GI50 up to about 1.1 µM and inactive = higher.
Assays:
Assay in all cases: NCI anticancer screen, dose series, 48 h
786-0 = tested on: 786-0
A498 = tested on: A498
A549 = tested on: A549
ACHN = tested on: ACHN
BT-549 = tested on: BT-549
CAKI-1 = tested on: CAKI-1
CCRF-CEM = tested on: CCRF-CEM
COLO 205 = tested on: COLO 205
DU-145 = tested on: DU-145
EKVX = tested on: EKVX
HCC 2998 = tested on: HCC 2998
HCT-116 = tested on: HCT-116
HCT-15 = tested on: HCT-15
HL-60 = tested on: HL-60
HOP-62 = tested on: HOP-62
HOP-92 = tested on: HOP-92
HT-29 = tested on: HT-29
Hs-578T = tested on: Hs-578T
IGROV-1 = tested on: IGROV-1
K562 = tested on: K562
KM12 = tested on: KM12
LOX IMVI = tested on: LOX IMVI
M14 = tested on: M14
MCF7 = tested on: MCF7
MDA-MB-231 = tested on: MDA-MB-231
MDA-MB-435 = tested on: MDA-MB-435
MDA-N = tested on: MDA-N
MOLT-4 = tested on: MOLT-4
Malme-3M = tested on: Malme-3M
NCI-H226 = tested on: NCI-H226
NCI-H23 = tested on: NCI-H23
NCI-H460 = tested on: NCI-H460
NCI-H522 = tested on: NCI-H522
NCI/ADR-RES = tested on: NCI/ADR-RES
OVCAR-3 = tested on: OVCAR-3
OVCAR-4 = tested on: OVCAR-4
OVCAR-5 = tested on: OVCAR-5
OVCAR-8 = tested on: OVCAR-8
PC-3 = tested on: PC-3
RPMI-8226 = tested on: RPMI-8226
RXF 393 = tested on: RXF 393
SF-268 = tested on: SF-268
SF-295 = tested on: SF-295
SF-539 = tested on: SF-539
SK-MEL-28 = tested on: SK-MEL-28
SK-MEL-2 = tested on: SK-MEL-2
SK-MEL-5 = tested on: SK-MEL-5
SK-OV-3 = tested on: SK-OV-3
SN12C = tested on: SN12C
SNB-19 = tested on: SNB-19
SNB-75 = tested on: SNB-75
SR = tested on: SR
SW-620 = tested on: SW-620
T47D = tested on: T47D
TK-10 = tested on: TK-10
U-251 = tested on: U-251
UACC-257 = tested on: UACC-257
UACC-62 = tested on: UACC-62
UO-31 = tested on: UO-31

Structure (SMILES): COc1cc(Nc2n[nH]c(NS(=O)(=O)c3cc(C)c(Cl)cc3S)n2)cc(OC)c1OC
- GI50 (786-0): > 100 µM (inactive)
- GI50 (A498): > 100 µM (inactive)
- GI50 (A549): > 100 µM (inactive)
- GI50 (ACHN): > 100 µM (inactive)
- GI50 (BT-549): > 100 µM (inactive)
- GI50 (CAKI-1): > 100 µM (inactive)
- GI50 (CCRF-CEM): > 100 µM (inactive)
- GI50 (COLO 205): > 100 µM (inactive)
- GI50 (DU-145): > 100 µM (inactive)
- GI50 (EKVX): > 100 µM (inactive)
- GI50 (HCC 2998): > 100 µM (inactive)
- GI50 (HCT-116): > 100 µM (inactive)
- GI50 (HCT-15): > 100 µM
- GI50 (HL-60): > 100 µM (inactive)
- GI50 (HOP-62): > 100 µM (inactive)
- GI50 (HOP-92): > 100 µM (inactive)
- GI50 (HT-29): > 100 µM (inactive)
- GI50 (Hs-578T): > 100 µM (inactive)
- GI50 (IGROV-1): > 100 µM (inactive)
- GI50 (K562): > 100 µM (inactive)
- GI50 (KM12): > 100 µM (inactive)
- GI50 (LOX IMVI): > 100 µM (inactive)
- GI50 (M14): > 100 µM (inactive)
- GI50 (MCF7): > 100 µM (inactive)
- GI50 (MDA-MB-231): > 100 µM (inactive)
- GI50 (MDA-MB-435): > 100 µM (inactive)
- GI50 (MDA-N): > 100 µM (inactive)
- GI50 (MOLT-4): > 100 µM (inactive)
- GI50 (Malme-3M): > 100 µM (inactive)
- GI50 (NCI-H226): > 100 µM (inactive)
- GI50 (NCI-H23): > 100 µM (inactive)
- GI50 (NCI-H460): > 100 µM (inactive)
- GI50 (NCI-H522): > 100 µM (inactive)
- GI50 (NCI/ADR-RES): > 100 µM (inactive)
- GI50 (OVCAR-3): > 100 µM (inactive)
- GI50 (OVCAR-4): > 100 µM (inactive)
- GI50 (OVCAR-5): > 100 µM (inactive)
- GI50 (OVCAR-8): > 100 µM (inactive)
- GI50 (PC-3): > 100 µM (inactive)
- GI50 (RPMI-8226): > 100 µM (inactive)
- GI50 (RXF 393): > 100 µM (inactive)
- GI50 (SF-268): > 100 µM (inactive)
- GI50 (SF-295): > 100 µM (inactive)
- GI50 (SF-539): > 100 µM (inactive)
- GI50 (SK-MEL-28): > 100 µM (inactive)
- GI50 (SK-MEL-2): > 100 µM (inactive)
- GI50 (SK-MEL-5): > 100 µM (inactive)
- GI50 (SK-OV-3): > 100 µM (inactive)
- GI50 (SN12C): > 100 µM (inactive)
- GI50 (SNB-19): > 100 µM (inactive)
- GI50 (SNB-75): > 100 µM (inactive)
- GI50 (SR): > 100 µM (inactive)
- GI50 (SW-620): > 100 µM (inactive)
- GI50 (T47D): > 100 µM (inactive)
- GI50 (TK-10): > 100 µM (inactive)
- GI50 (U-251): > 100 µM (inactive)
- GI50 (UACC-257): > 100 µM (inactive)
- GI50 (UACC-62): > 100 µM (inactive)
- GI50 (UO-31): > 100 µM (inactive)

Structure (SMILES): COc1cc(/C=C2/SC(c3ccccc3)N(c3ccc(Cl)cc3)C2=O)cc(OC)c1OC (configuration not stated)
- GI50 (786-0): > 100 µM (inactive)
- GI50 (A498): > 80 µM (inactive)
- GI50 (A549): > 41.5 µM (inactive)
- GI50 (ACHN): 4.35 µM (inactive)
- GI50 (BT-549): > 59 µM (inactive)
- GI50 (CAKI-1): > 51.2 µM (inactive)
- GI50 (CCRF-CEM): 2.84 µM (inactive)
- GI50 (COLO 205): 1.3 µM (inactive)
- GI50 (DU-145): > 100 µM (inactive)
- GI50 (EKVX): > 52.6 µM (inactive)
- GI50 (HCC 2998): > 100 µM (inactive)
- GI50 (HCT-116): 0.897 µM (active)
- GI50 (HCT-15): 8.13 µM
- GI50 (HL-60): 10.1 µM (inactive)
- GI50 (HOP-62): > 29.4 µM (inactive)
- GI50 (HOP-92): > 100 µM (inactive)
- GI50 (HT-29): > 100 µM (inactive)
- GI50 (Hs-578T): > 100 µM (inactive)
- GI50 (IGROV-1): > 100 µM (inactive)
- GI50 (K562): 0.244 µM (active)
- GI50 (KM12): 5.46 µM (inactive)
- GI50 (LOX IMVI): 50.8 µM (inactive)
- GI50 (M14): 0.964 µM (active)
- GI50 (MCF7): 3.96 µM (inactive)
- GI50 (MDA-MB-231): > 100 µM (inactive)
- GI50 (MDA-MB-435): 0.436 µM (active)
- GI50 (MDA-N): 2.37 µM (inactive)
- GI50 (MOLT-4): 15.7 µM (inactive)
- GI50 (Malme-3M): 27 µM (inactive)
- GI50 (NCI-H226): > 100 µM (inactive)
- GI50 (NCI-H23): 17.9 µM (inactive)
- GI50 (NCI-H460): 8 µM (inactive)
- GI50 (NCI-H522): 18.3 µM (inactive)
- GI50 (NCI/ADR-RES): 25.9 µM (inactive)
- GI50 (OVCAR-3): 80.5 µM (inactive)
- GI50 (OVCAR-4): 7.98 µM (inactive)
- GI50 (OVCAR-5): > 100 µM (inactive)
- GI50 (OVCAR-8): > 100 µM (inactive)
- GI50 (PC-3): 28.6 µM (inactive)
- GI50 (RPMI-8226): 2.99 µM (inactive)
- GI50 (RXF 393): 49.7 µM (inactive)
- GI50 (SF-268): 19.5 µM (inactive)
- GI50 (SF-295): 3.27 µM (inactive)
- GI50 (SF-539): > 100 µM (inactive)
- GI50 (SK-MEL-28): > 56.6 µM (inactive)
- GI50 (SK-MEL-2): > 20.6 µM (inactive)
- GI50 (SK-MEL-5): 0.638 µM (active)
- GI50 (SK-OV-3): 9.48 µM (inactive)
- GI50 (SN12C): > 32 µM (inactive)
- GI50 (SNB-19): > 58.2 µM (inactive)
- GI50 (SNB-75): 95.3 µM (inactive)
- GI50 (SR): 7.6 µM (inactive)
- GI50 (SW-620): 57.4 µM (inactive)
- GI50 (T47D): 3.94 µM (inactive)
- GI50 (TK-10): > 100 µM (inactive)
- GI50 (U-251): > 72.6 µM (inactive)
- GI50 (UACC-257): 47.2 µM (inactive)
- GI50 (UACC-62): 2.02 µM (inactive)
- GI50 (UO-31): 10.9 µM (inactive)

Structure (SMILES): COc1ccc2ccccc2c1/C=C/C(=O)c1ccccc1
- GI50 (786-0): 2.87 µM (inactive)
- GI50 (A498): 3.56 µM (inactive)
- GI50 (A549): 2.65 µM (inactive)
- GI50 (ACHN): 3.33 µM (inactive)
- GI50 (BT-549): 2.96 µM (inactive)
- GI50 (CAKI-1): 4.8 µM (inactive)
- GI50 (CCRF-CEM): 1.65 µM (inactive)
- GI50 (COLO 205): 3.25 µM (inactive)
- GI50 (DU-145): 2.4 µM (inactive)
- GI50 (EKVX): 3.61 µM (inactive)
- GI50 (HCC 2998): 1.66 µM (inactive)
- GI50 (HCT-116): 2.99 µM (inactive)
- GI50 (HCT-15): 2.9 µM
- GI50 (HL-60): 1.7 µM (inactive)
- GI50 (HOP-62): 2.68 µM (inactive)
- GI50 (HOP-92): 1.69 µM (inactive)
- GI50 (HT-29): 3.43 µM (inactive)
- GI50 (Hs-578T): 2.92 µM (inactive)
- GI50 (IGROV-1): 4.03 µM (inactive)
- GI50 (K562): 1.93 µM (inactive)
- GI50 (KM12): 2.51 µM (inactive)
- GI50 (LOX IMVI): 2.77 µM (inactive)
- GI50 (M14): 3.13 µM (inactive)
- GI50 (MCF7): 3.25 µM (inactive)
- GI50 (MDA-MB-231): 2.66 µM (inactive)
- GI50 (MDA-MB-435): 2.53 µM (inactive)
- GI50 (MDA-N): 2.94 µM (inactive)
- GI50 (MOLT-4): 2.84 µM (inactive)
- GI50 (Malme-3M): 9.33 µM (inactive)
- GI50 (NCI-H226): 3.1 µM (inactive)
- GI50 (NCI-H23): 2.6 µM (inactive)
- GI50 (NCI-H460): 1.79 µM (inactive)
- GI50 (NCI-H522): 2.46 µM (inactive)
- GI50 (NCI/ADR-RES): 3.01 µM (inactive)
- GI50 (OVCAR-3): 2.32 µM (inactive)
- GI50 (OVCAR-4): 2.74 µM (inactive)
- GI50 (OVCAR-5): 7.57 µM (inactive)
- GI50 (OVCAR-8): 2.33 µM (inactive)
- GI50 (PC-3): 4 µM (inactive)
- GI50 (RPMI-8226): 1.44 µM (inactive)
- GI50 (RXF 393): 1.33 µM (inactive)
- GI50 (SF-268): 2.7 µM (inactive)
- GI50 (SF-295): 3.75 µM (inactive)
- GI50 (SF-539): 2.74 µM (inactive)
- GI50 (SK-MEL-28): 5.96 µM (inactive)
- GI50 (SK-MEL-2): 1.56 µM (inactive)
- GI50 (SK-MEL-5): 4.19 µM (inactive)
- GI50 (SK-OV-3): 3.62 µM (inactive)
- GI50 (SN12C): 2.88 µM (inactive)
- GI50 (SNB-19): 3.24 µM (inactive)
- GI50 (SNB-75): 1.08 µM (active)
- GI50 (SR): 1.06 µM (active)
- GI50 (SW-620): 2.54 µM (inactive)
- GI50 (T47D): 2.43 µM (inactive)
- GI50 (TK-10): 2.59 µM (inactive)
- GI50 (U-251): 1.95 µM (inactive)
- GI50 (UACC-257): 4.05 µM (inactive)
- GI50 (UACC-62): 2.89 µM (inactive)
- GI50 (UO-31): 2.82 µM (inactive)

Reference: ChEMBL document CHEMBL1201862, “PubChem BioAssay data set” (2004)
